Measured values published in patent US10820591B2, “Substituted sulfonyl amides for controlling animal pests” (Bayer Aktiengesellschaft, priority 2016, dated 2020).
Like-named read-outs stand apart in the source and are kept apart here. One block for each molecule: values may come before it.

What was measured:
[1] = system: Meloidogyne incognita; assay: Meloidogyne incognita test, comparative examples (soil drench, lettuce); type: in vivo; settings: 504 h, MELGIN, 21dat
Experimental: Meloidogyne incognita Test [table] To produce a suitable active compound preparation, 1 part by weight of active compound is mixed with the specified amounts of solvent and emulsifier, and the concentrate is diluted with water to the desired concentration, it being necessary to include the volume of soil which is drenched in the calculation. It should be ensured that a concentration of 20 ppm of emulsifier in the soil is not exceeded. To produce further test concentrations, water is used for dilution. Pots filled with soil (loamy sand) are watered with the active compound solution. An egg/larvae suspension of the southern root-knot nematode (Meloidogyne incognita) is added, lettuce seeds are scattered over the surface of the soil, and they are covered over with quartz sand. The lettuce seeds germinate and the plants develop. The galls develop on the roots. After 21 days, the nematicidal efficacy in % is determined by the formation of galls. 100% means that no galls have been found; 0% means that the number of galls on the treated plants corresponds to the untreated control.

[2] = system: Meloidogyne incognita; assay: Meloidogyne incognita test (sand, lettuce, gall formation); type: in vivo; settings: Meloidogyne incognita, 336 h, 20 ppm, after 14 days; read-out: nematicidal efficacy (formation of galls)
Summary of the method: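 Gall counts on lettuce roots were scored after 14 days in sand inoculated with root-knot nematode eggs/larvae plus compound diluted in water. Values run from 0% (galls as in untreated plants) to 100% (gall-free).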

[3] = system: Phaedon cochleariae; assay: Phaedon cochleariae spray test; type: in vivo; settings: 500 g/ha, Chinese cabbage leaf discs, after 7 days
Experimental: Phaedon cochleariae—Spray Test
(§1) To produce a suitable active compound preparation, 1 part by weight of active compound is dissolved with the specified parts by weight of solvent and made up to the desired concentration with water containing an emulsifier concentration of 1000 ppm. To produce further test concentrations, the formulation is diluted with emulsifier-containing water.
After 7 days, the efficacy in % is determined. 100% means that all the beetle larvae have been killed; 0% means that no beetle larvae have been killed.

[4] = system: Tetranychus urticae; assay: Tetranychus urticae spray test, OP-resistant; type: in vivo; settings: foliar, 144 h, bean leaf discs, after 6 days, read-out: efficacy
Experimental: Tetranychus urticae—Spray Test, OP-Resistant
as §1
Discs of bean leaves (Phaseolus vulgaris) infested with all stages of the greenhouse red spider mite (Tetranychus urticae) are sprayed with an active compound preparation of the desired concentration.
After 6 days, the efficacy in % is determined. 100% means that all the spider mites have been killed; 0% means that no spider mites have been killed.

[5] = system: Boophilus microplus; assay: Boophilus microplus injection test; type: in vivo; settings: 20 μg/animal, after 7 days
Experimental: Boophilus microplus—Injection Test Solvent: dimethyl sulfoxide To produce a suitable active compound preparation, 10 mg of active compound are mixed with 0.5 ml of solvent and the concentrate is diluted to the desired concentration with solvent. 1 μl of the active compound solution is injected into the abdomen of 5 engorged adult female cattle ticks (Boophilus microplus). The animals are transferred into dishes and kept in a climate-controlled room. Efficacy is assessed after 7 days by laying of fertile eggs. Eggs which are not visibly fertile are stored in a climate-controlled cabinet until the larvae hatch after about 42 days. An efficacy of 100% means that none of the ticks has laid any fertile eggs; 0% means that all the eggs are fertile.

[6] = system: Myzus persicae; assay: Myzus persicae spray test (Chinese cabbage leaf discs); type: in vivo; settings: foliar, 144 h, 500 g/ha, after 6 days, read-out: efficacy
Experimental: Myzus persicae—Spray Test [table] To produce a suitable active compound preparation, 1 part by weight of active compound is dissolved with the specified parts by weight of solvent and made up to the desired concentration with water containing an emulsifier concentration of 1000 ppm. To produce further test concentrations, the formulation is diluted with emulsifier-containing water. Discs of Chinese cabbage leaves (Brassica pekinensis) infested by all stages of the green peach aphid (Myzus persicae) are sprayed with an active compound preparation of the desired concentration. After 6 days, the efficacy in % is determined. 100% means that all the aphids have been killed; 0% means that no aphids have been killed.

[7] = system: Spodoptera frugiperda; assay: Spodoptera frugiperda spray test; type: in vivo; settings: 500 g/ha, maize leaf discs, after 7 days
Experimental: Spodoptera frugiperda—Spray Test [table] To produce a suitable active compound preparation, 1 part by weight of active compound is dissolved with the specified parts by weight of solvent and made up to the desired concentration with water containing an emulsifier concentration of 1000 ppm. To produce further test concentrations, the formulation is diluted with emulsifier-containing water. Leaf discs of maize (Zea mays) are sprayed with an active compound preparation of the desired concentration and, after drying, populated with caterpillars of the armyworm (Spodoptera frugiperda). After 7 days, the efficacy in % is determined. 100% means that all the caterpillars have been killed; 0% means that no caterpillar has been killed.

[8] = system: Nilaparvata lugens; assay: Nilaparvata lugens test; type: in vivo; settings: 500 g/ha, spray, rice plants, after 4 days
Experimental: Nilaparvata lugens Test [table] To produce a suitable active compound preparation, 1 part by weight of active compound is dissolved with the specified parts by weight of solvent and made up to the desired concentration with water containing an emulsifier concentration of 1000 ppm. To produce further test concentrations, the formulation is diluted with emulsifier-containing water. Rice plants (Oryza sativa) are sprayed with the active compound preparation of the desired concentration and then infected with larvae of the brown planthopper (Nilaparvata lugens). After 4 days, the efficacy in % is determined. 100% means that all of the planthoppers have been killed; 0% means that none of the planthoppers have been killed.

[9] = system: Myzus persicae; assay: Myzus persicae oral test; type: in vivo; settings: 120 h, 20 ppm, after 5 days, read-out: efficacy
Experimental: Myzus persicae—Oral Test [table] To produce a suitable active compound preparation, 1 part by weight of active compound is dissolved with the stated parts by weight of solvent and made up to the desired concentration with water. 50 μl of the active compound preparation are transferred into microtitre plates and made up to a final volume of 200 μl with 150 μl of IPL41 insect medium (33%+15% sugar). Subsequently, the plates are sealed with parafilm, which a mixed population of green peach aphids (Myzus persicae) within a second microtitre plate is able to puncture and imbibe the solution through it. After 5 days, the efficacy in % is determined. 100% means that all the aphids have been killed; 0% means that no aphids have been killed.

[10] = system: Myzus persicae; assay: Myzus persicae spray test (bell pepper plants); type: in vivo; settings: 100 ppm, after 6 days
Experimental: Myzus persicae—Spray Test [table] To produce a suitable active compound preparation, 1 part by weight of active compound is dissolved with the specified parts by weight of solvent and made up to the desired concentration with water containing an emulsifier concentration of 1000 ppm. To produce further test concentrations, the formulation is diluted with emulsifier-containing water. If the addition of ammonium salts or/and penetrants is required, these are each added in a concentration of 1000 ppm to the formulation solution. Bell pepper plants (Capsicum annuum) severely infested with the green peach aphid (Myzus persicae) are treated by spraying with the active compound preparation in the desired concentration. After 6 days, the kill in % is determined. 100% means that all of the aphids have been killed; 0% means that none of the aphids have been killed.

[11] = log P by HPLC on reversed-phase column (C18), EEC Directive 79/831 Annex V.A8; type: physicochemical; settings: reversed-phase C18 HPLC column, 43° C.
Experimental: The log P values were determined according to EEC Directive 79/831 Annex V.A8 by HPLC (high-performance liquid chromatography) on a reversed-phase column (C18). Temperature 43° C. The calibration is effected with unbranched alkan-2-ones (having 3 to 16 carbon atoms), for which the log P values are known. Here, the terms acidic and neutral are defined analogously to the definitions below for the determination of M^+. The determination of the M^+ by LC-MS in the acidic range was carried out at pH 2.7 using the mobile phases 0.1% aqueous formic acid and acetonitrile (contains 0.1% formic acid); linear gradient from 10% acetonitrile to 95% acetonitrile, instrument: Agilent 1100 LC system, Agilent MSD system, HTS PAL. The determination of the M^+ by LC-MS in the neutral range was carried out at pH 7.8 using the mobile phases 0.001 molar aqueous ammonium bicarbonate solution and acetonitrile; linear gradient from 10% acetonitrile to 95% acetonitrile.

[12] = neutral range, pH 7.8, aqueous ammonium bicarbonate/acetonitrile, read-out: log P (neutral)
[13] = pH 2.7, HCOOH (formic acid mobile phase), read-out: log P (HCOOH)

SMILES: COc1ccc(Cl)c(S(=O)(=O)NC(=O)c2cc3cc(Cl)cc(Cl)n3n2)c1
nematode control efficacy (%) at 1 ppm [1]: 0%

SMILES: COc1ccc(Cl)c(S(=O)(=O)NC(=O)c2cc3c(Cl)cc(C(F)(F)F)cn3n2)c1
nematode control efficacy (%) at 8 ppm [1]: 30%

SMILES: COc1ccc(Cl)c(S(=O)(=O)NC(=O)c2cn3cc(C(F)(F)F)cc(Cl)c3n2)c1
nematode control efficacy (%) at 0.5 ppm [1]: 55%

SMILES: COc1ccc(S(=O)(=O)NC(=O)c2ncn(CCC(F)(F)F)c2Cl)cc1C [I-037]
pest or weed control at 20 ppm [2]: 100%
efficacy [3]: 83%

SMILES: O=C(NS(=O)(=O)c1ccccc1)c1ncn(C2CC2C(F)(F)F)c1Cl (centres unmarked) [I-059]
pest or weed control at 500 g/ha [4]: 90%
efficacy (laying of fertile eggs) [5]: 100%
pest or weed control at 20 ppm [2]: 100%
pest or weed control at 500 g/ha [6]: 70%
efficacy [7]: 100%
efficacy [3]: 83%

SMILES: O=C(NS(=O)(=O)c1ccccc1Cl)c1ncn(C2CC2C(F)(F)F)c1Cl (centres unmarked) [I-060]
pest or weed control at 500 g/ha [4]: 90%
efficacy (laying of fertile eggs) [5]: 70%
pest or weed control at 20 ppm [2]: 90%
pest or weed control at 500 g/ha [6]: 70%
efficacy [7]: 100%

SMILES: COc1ccc(S(=O)(=O)NC(=O)c2ncn(C(C)CC(F)(F)F)c2Cl)cc1 (centres unmarked) [I-070]
pest or weed control at 20 ppm [2]: 100%
efficacy [8]: 100%

SMILES: O=C(NS(=O)(=O)c1ccccc1Cl)c1nc(Br)n(CCC(F)(F)F)c1Br [I-107]
pest or weed control at 20 ppm [2]: 100%
efficacy [8]: 100%

SMILES: COc1ccc(Cl)c(S(=O)(=O)NC(=O)c2nc(Cl)n(-c3cc(Cl)cc(Cl)c3)c2Cl)c1 [I-113]
pest or weed control at 20 ppm [2]: 100%
nematode control efficacy (%) at 0.5 ppm [1]: 100%

SMILES: COc1ccc(Cl)c(S(=O)(=O)NC(=O)c2cc(-c3cc(Cl)cc(Cl)c3)n(C)n2)c1 [I-137]
pest or weed control at 20 ppm [2]: 100%
nematode control efficacy (%) at 1 ppm [1]: 85%

SMILES: COc1ccc(Cl)c(S(=O)(=O)NC(=O)c2cc(-c3cc(Cl)cc(C(F)(F)F)c3)n(C)n2)c1 [I-141]
pest or weed control at 20 ppm [2]: 90%
nematode control efficacy (%) at 8 ppm [1]: 99%

SMILES: O=C(NS(=O)(=O)c1ccccc1Cl)c1cn(Cc2ccccc2Cl)cn1 [I-156]
pest or weed control at 20 ppm [2]: 100%
efficacy [7]: 100%

SMILES: Cc1nc(C(=O)NS(=O)(=O)c2ccccc2)cn1-c1cccc(Cl)c1Cl [I-268]
efficacy (laying of fertile eggs) [5]: 80%
pest or weed control at 20 ppm [2]: 100%
pest or weed control at 500 g/ha [6]: 90%
pest or weed control at 20 ppm [9]: 90%

SMILES: Cc1cc(C)cc(-n2cnc(C(=O)NS(=O)(=O)c3ccccc3)c2)c1 [I-284]
efficacy (laying of fertile eggs) [5]: 100%
pest or weed control at 20 ppm [2]: 70%
pest or weed control at 20 ppm [9]: 100%

SMILES: O=C(NS(=O)(=O)c1cccc(Cl)c1)c1cn(-c2cc(Cl)cc(C(F)(F)F)c2)cn1 [I-300]
pest or weed control at 20 ppm [2]: 70%
efficacy [3]: 100%

SMILES: Cc1nc(C(=O)NS(=O)(=O)c2ccccc2Cl)cn1-c1cc(Cl)cc(Cl)c1 [I-316]
efficacy (kill in %) [10]: 95%
pest or weed control at 20 ppm [2]: 100%
pest or weed control at 20 ppm [9]: 100%

SMILES: CCSc1cccc(Cl)c1S(=O)(=O)NC(=O)c1cn(-c2cc(F)cc(F)c2)c(C)n1 [I-387]
efficacy (kill in %) [10]: 99%
pest or weed control at 20 ppm [2]: 100%
pest or weed control at 500 g/ha [6]: 70%
pest or weed control at 20 ppm [9]: 100%

SMILES: CCc1ccc(C)c(S(=O)(=O)NC(=O)c2nc(Cl)n(CCC(F)(F)F)c2Cl)c1 [I-456]
pest or weed control at 20 ppm [2]: 100%
efficacy [8]: 100%

SMILES: COc1ccc(Cl)c(S(=O)(=O)NC(=O)c2nc(Cl)n(C3CC3C(F)(F)F)c2Cl)c1 (centres unmarked) [I-470]
pest or weed control at 20 ppm [2]: 100%
nematode control efficacy (%) at 0.5 ppm [1]: 100%

chromatographic logP [11, 12]: 1.7
SMILES: CCCn1cnc(C(=O)OCC)c1Cl [ethyl 5-chloro-1-propyl-1H-imidazole-4-carboxylate]

chromatographic logP ([11]; acidic range, pH 2.7, 0.1% aqueous formic acid/acetonitrile, read-out: log P (acidic)): 1.45
chromatographic logP [11, 12]: 1.55
SMILES: COC(=O)c1cn(Cc2c(F)cccc2F)cn1 [methyl 1-(2,6-difluorobenzyl)-1H-imidazole-4-carboxylate]

chromatographic logP [11, 13]: 0.87
SMILES: COC(=O)c1cn(CCC(F)(F)F)cn1 [methyl 1-(3,3,3-trifluoropropyl)-1H-imidazole-4-carboxylate]

chromatographic logP [11, 13]: 2.13
SMILES: COC(=O)c1nc(Br)n(CCC(F)(F)F)c1Br [methyl 2,5-dibromo-1-(3,3,3-trifluoropropyl)-1H-imidazole-4-carboxylate]
